Source: patent publication US12187816B2, “Macrocyclic compounds and methods of use thereof” (Genentech, Inc., priority 2020, dated 2025)
Starred links: 1 amine or outer side, 2 acyl side, 3 side chain; linkers in the order of their positions; H or OH if unused. Positions of bridges follow the written chain, without caps; N, C: chain ends. Non-standard residues stand in square brackets, D forms with d. Residues, ends and D or L forms follow the SMILES beside them. *: point of attachment. JQ1acid = Cc1sc2c(c1C)C(c1ccc(Cl)cc1)=N[C@@H](CC(=O)*)c1nnc(C)n1-2; dPhg(4-(4-Me-thiazol-5-yl)) = Cc1ncsc1-c1ccc([C@@H](N)C(=O)O)cc1; Phg(4-(4-Me-thiazol-5-yl)) = Cc1ncsc1-c1ccc([C@H](N)C(=O)O)cc1; dDap(Me) = CN(C[C@@H](N[*:1])C(=O)[*:2])[*:3]; Hyp = O=C(O)[C@@H]1C[C@@H](O)CN1; d(β3hK) = NCCCC[C@@H](N)CC(=O)O; Tle = CC(C)(C)[C@H](N)C(=O)O; dDap = NC[C@@H](N)C(=O)O; PEG1 = NCCOCCC(=O)O; Ahx = NCCCCCC(=O)O; AEA = NCCOCC(=O)O

Biological target: T1, BRD4 (Homo sapiens, UniProt O60885)
T1 construct: Mean 488 intensity of BRD4 quantitated in nuclear region; endogenous in cells; host or cells: EoL-1 eosinophilic leukemia cells
Test: BRD4 degradation assay in EOL1 cells (immunofluorescence imaging)
Format: cell-based
Details: EoL-1 eosinophilic leukemia cells, 4 hours treatment, nuclear BRD4 immunofluorescence
Experimental: BRD4 Degradation Assay in EOL1 Cells
EoL-1 eosinophilic leukemia cells were seeded on day 1 at a density of 45,000 cells per well in Corning PureCoat Amine Microplates, (Corning #354719) in 45 μL/well of assay media (RPMI, 10% FBS, containing L-glutamine). After cells attached to cell plate, compounds were serially diluted ⅓ in dimethylsulfoxide (DMSO) to create 20-point dilutions across a 384 well v-bottom polypropylene microplate (Greiner #781091). 2 μL of each sample from the serial dilution was transferred to 98 μL of assay media as an intermediate dilution. 5 μL of each well of the intermediate dilution was added to 45 μL of cell plate. Columns 1, 2, 23 and 24 were treated with only 0.2% final concentration of DMSO for data normalization as “neutral controls”. After compound treatment, cell plates were stored in a 37° C. incubator for 4 hours. After 4 hours cells were fixed in 3.7% w/v final concentration of paraformaldehyde by addition of 15 μL of 16% w/v paraformaldehyde (Electron Microscopy Sciences #15710-S) directly to the 50 μL media and compound in the cell plate. Cell plate was incubated at RT for 20 minutes. Well contents were aspirated and washed with 100 μL/well PBS 3 times. 50 ul/well of phosphate Buffered Saline (PBS) (pH 7.5) containing 0.5% w/v bovine serum albumen, 0.5% w/v Triton X-100 (Block/Permeabilization Buffer) was added to each well. Samples were incubated for 20 minutes. Well contents were aspirated and washed 3 times with 100 μL/well of PBS. PBS was aspirated from the well and 50 μL per well of EoL-1 Block Buffer (PBS containing 10% Normal Goat Serum (AbCam #ab7481)) was added to each well. Plates were incubated at room temperature for 30 minutes. Block buffer was decanted from the wells. Immunofluorescence staining of BRD4 was carried out by diluting mAB Anti-BRD4 [EPR5150] antibody (Abcam 128874) 1:500 into Antibody Dilution Buffer (PBS, 2% Normal Goat Serum). 25 μL per well of BRD4 antibody diluted in buffer was added and incubated overnight at 4° C.
On day-2 samples were washed 3 times with 100 μL/well of PBS. 25 μL/well of secondary antibody solution (Goat Anti-Rabbit IgG, DyLight 488 Conjugated Highly Cross-adsorbed Thermo Fisher #35553) and Hoechst 33342 1 μg/ml diluted in Antibody Dilution Buffer) were dispensed into each well. Hoechst 33342 only was added to bottom 3 columns for data normalization as “inhibitor controls”. Samples were incubated for 2 hours at room temperature. Samples were washed 3 times with 100 μL PBS. Quantitative fluorescence imaging of BRD4 was carried out using an Opera Phenix High-Content Screening System. Fluorescent images of the samples were captured using 488 nm and 405 nm channels. Hoechst channel was used to identify nuclear region. Mean 488 intensity of BRD4 quantitated in nuclear region. Data analysis was carried out using Genedata Screener, with DMSO and no primary antibody control treated samples being used to define the 0% and 100% changes in BRD4. The dose-response log(inhibitor) vs. response used to define the inflexion point of curve (DC50) and the plateau of the maximal effect.
The individual topological polar surface area (TPSA) and cLogP values were calculated using Chemdraw v. 15.1 (PerkinElmer). Half life of the ternary VHL/BD1 and VHL/BD2 complexes, DC50 of BRD4 in EOL1 cells, topological polar surface area of a molecule (TPSA) and c log P (lipophilicity) for compounds described herein are provided in Table 3.

Structure (SMILES)	DC50
Cc1ncsc1-c1ccc([C@H]2NC(=O)[C@@H]3C[C@@H](O)CN3C(=O)[C@H](C(C)(C)C)NC(=O)CSC[C@@H](C(N)=O)NC(=O)[C@@H](CNC(=O)C[C@@H]3N=C(c4ccc(Cl)cc4)c4c(sc(C)c4C)-n4c(C)nnc43)NC(=O)CNC2=O)cc1 [Compound 28] ({CH2CO}-[Tle][Hyp][dPhg(4-(4-Me-thiazol-5-yl))]G[dDap](JQ1acid)C-NH2; thioether N-6)	> 20 µM
Cc1ncsc1-c1ccc([C@H]2NC(=O)[C@@H]3C[C@@H](O)CN3C(=O)[C@H](C(C)(C)C)NC(=O)CSC[C@H](C(N)=O)NC(=O)[C@@H](CN(C)C(=O)C[C@@H]3N=C(c4ccc(Cl)cc4)c4c(sc(C)c4C)-n4c(C)nnc43)NC(=O)CNC2=O)cc1 [Compound 29] ({CH2CO}-[Tle][Hyp][dPhg(4-(4-Me-thiazol-5-yl))]G[dDap(Me)](JQ1acid)[dC]-NH2; thioether N-6)	< 20 µM
Cc1ncsc1-c1ccc([C@@H]2NC(=O)[C@@H]3C[C@@H](O)CN3C(=O)[C@H](C(C)(C)C)NC(=O)CSC[C@H](C(N)=O)NC(=O)[C@@H](CNC(=O)C[C@@H]3N=C(c4ccc(Cl)cc4)c4c(sc(C)c4C)-n4c(C)nnc43)NC(=O)[C@@H](C)NC2=O)cc1 [Compound 31] ({CH2CO}-[Tle][Hyp][Phg(4-(4-Me-thiazol-5-yl))][dA][dDap](JQ1acid)[dC]-NH2; thioether N-6)	> 20 µM
Cc1ncsc1-c1ccc([C@H]2NC(=O)[C@@H]3C[C@@H](O)CN3C(=O)[C@H](C(C)(C)C)NC(=O)CCOCCNC(=O)[C@@H](CNC(=O)C[C@@H]3N=C(c4ccc(Cl)cc4)c4c(sc(C)c4C)-n4c(C)nnc43)NC(=O)CNC2=O)cc1 [Compound 32] (cyclo(G[dDap](JQ1acid)[PEG1][Tle][Hyp][dPhg(4-(4-Me-thiazol-5-yl))]))	> 20 µM
Cc1ncsc1-c1ccc([C@H]2NC(=O)[C@@H]3C[C@@H](O)CN3C(=O)[C@H](C(C)(C)C)NC(=O)CNC(=O)[C@H](C)NC(=O)[C@@H](CNC(=O)C[C@@H]3N=C(c4ccc(Cl)cc4)c4c(sc(C)c4C)-n4c(C)nnc43)NC(=O)CNC2=O)cc1 [Compound 33] (cyclo(AG[Tle][Hyp][dPhg(4-(4-Me-thiazol-5-yl))]G[dDap](JQ1acid)))	< 1 µM
Cc1ncsc1-c1ccc([C@@H]2NC(=O)[C@@H]3C[C@@H](O)CN3C(=O)[C@H](C(C)(C)C)NC(=O)COCCNC(=O)[C@@H](CNC(=O)C[C@@H]3N=C(c4ccc(Cl)cc4)c4c(sc(C)c4C)-n4c(C)nnc43)NC(=O)[C@H](C)NC2=O)cc1 [Compound 35] (cyclo(A[dDap](JQ1acid)[AEA][Tle][Hyp][Phg(4-(4-Me-thiazol-5-yl))]))	> 20 µM
Cc1ncsc1-c1ccc([C@H]2NC(=O)[C@@H]3C[C@@H](O)CN3C(=O)[C@H](C(C)(C)C)NC(=O)CNC(=O)C[C@@H](CCCCNC(=O)C[C@@H]3N=C(c4ccc(Cl)cc4)c4c(sc(C)c4C)-n4c(C)nnc43)NC(=O)CNC2=O)cc1 [Compound 36] (cyclo(G[Tle][Hyp][dPhg(4-(4-Me-thiazol-5-yl))]G[d(β3hK)](JQ1acid)))	> 20 µM
Cc1ncsc1-c1ccc([C@@H]2NC(=O)[C@@H]3C[C@@H](O)CN3C(=O)[C@H](C(C)(C)C)NC(=O)CNC(=O)C[C@@H](CCCCNC(=O)C[C@@H]3N=C(c4ccc(Cl)cc4)c4c(sc(C)c4C)-n4c(C)nnc43)NC(=O)CNC2=O)cc1 [Compound 37] (cyclo(G[Tle][Hyp][Phg(4-(4-Me-thiazol-5-yl))]G[d(β3hK)](JQ1acid)))	> 20 µM
Cc1ncsc1-c1ccc([C@H]2NC(=O)[C@@H]3C[C@@H](O)CN3C(=O)[C@H](C(C)(C)C)NC(=O)CCCCCNC(=O)[C@@H](CNC(=O)C[C@@H]3N=C(c4ccc(Cl)cc4)c4c(sc(C)c4C)-n4c(C)nnc43)NC(=O)CNC2=O)cc1 [Compound 38] (cyclo([Ahx][Tle][Hyp][dPhg(4-(4-Me-thiazol-5-yl))]G[dDap](JQ1acid)))	< 1 µM
